Assay results from PMC12652692, “Synthesis and In Vitro Anticancer Evaluation of Novel Phosphonium Derivatives of Chrysin” (International Journal of Molecular Sciences, 2025).

Key:
Assay in all cases: NCI60 one-dose screen
Assay type in all cases: cell-based
SK-OV-3 = details: Homo sapiens; SK-OV-3, 10 μM; read-out: Growth percent
Method: (§1) The screening results are presented in the Supplementary Materials (Table S1), where the cytotoxicity was determined for the 10 µM concentration. […] The negative numbers indicate significant decreases in the cell number. […] Compared to the reference chrysin (2), all phosphonium hybrids (3a–h) had significant antiproliferative activities. […] At the same time, it should be noted that more than 60% average reduction was also obtained in the case of the other examined conjugates (3a–h).
(§2) A detailed description of the NCI screening procedures, including the one-dose and five-dose tests, can be found in the Supplementary Materials, on the website of NCI [39], and in our previous work.
(§3) A detailed description of the NCI screening procedures can also be found on the website of NCI [39], and in our […]
(§4) All candidates were examined at first at a single high dose (10 μM) in the full NCI60 cell panel. The value reported for the one-dose test is growth relative to the no-drug control and relative to the time zero number of cells. This made possible the disclosure of both growth inhibition (numbers between 0 and 100) and lethality (numbers less than 0). For example, a value of 100 means no growth inhibition. A value of 20 would mean 80% growth inhibition. A value of 0 means no net growth over the course of the analysis. A value of −20 would mean 20% lethality. A value of −100 means all cells are dead. […]
(§5) concentration levels. The human tumor cell lines of the cancer screening panel were grown in RPMI 1640 medium containing 5% fetal bovine serum and 2 mM l-glutamine. Characteristically, cells were injected in 96-well microtiter plates in 0.1 mL at plating densities ranging from 5000 to 40,000 cells/well, depending on the doubling time of individual cell lines. After cell inoculation, the microtiter plates were incubated at 37 °C, 5% carbon dioxide, 95% air, and 100% relative humidity for 24 hours before the addition of tested compounds. After 24 hours, 2 plates of each cell line were fixed in situ with Cl3COOH (TCA), to represent a measurement of the cell population for each cell line at the time of drug addition (tz). Tested compounds were solubilized in DMSO at 400-fold the desired final maximum test concentration and stored frozen before application. In the course of the drug addition, an aliquot of frozen concentrate was thawed and diluted to twice the desired final maximum test concentration with a complete medium containing 50 μg mL−1 gentamicin. Additional four, 10-fold or ½ log serial dilutions were produced to furnish a total of five drug concentrations plus control. Aliquots of 0.1 mL of these different drug dilutions were added to the appropriate microtiter wells already containing 0.1 mL of medium, resulting in the required final drug concentrations.
(§6) Following drug addition, the plates were incubated at 37 °C, 5% carbon dioxide, 95% air, and 100% relative humidity for an additional 48 hours. For adherent cells, the test was finished by the addition of cold Cl3COOH. Cells were fixed in situ by the addition of 50 μL of cold 50% (w/v) Cl3COOH, and incubated at 4 °C for 1 hour. The supernatant was discarded, and the plates were washed with H2O (5×) and dried in air. Sulforhodamine B (SRB) solution (0.1 mL) at 0.4% (w/v) in 1% CH3COOH was added to each well, and plates were incubated at RT for 10 min. After staining, the unbound dye was removed by washing five times with 1% CH3COOH, and the plates were dried in the air. The bound stain is afterward solubilized with a 10 mM trizma base, and the absorbance is read on an automated plate reader at λ = 515 nm. Utilizing the seven absorbance measurements [time zero (tz), control growth (c), and test growth in the presence of the drug at the five concentration levels (ti)], the percentage growth was determined at each of the drug concentration levels. Growth inhibition (%) was calculated as:
(§7) [(ti − tz)/(c − tz)] × 100, for concentrations where ti ≥ tz (1) […]

SW-620 = details: Homo sapiens; SW-620, 10 μM; read-out: Growth percent
Method: as §1, §2, §3, §4, §5, §6, §7

786-0 = details: Homo sapiens; 786-0, 10 μM; read-out: Growth percent
Method: as §1, §2, §3, §4, §5, §6, §7

OVCAR-5 = details: Homo sapiens; OVCAR-5, 10 μM; read-out: Growth percent
Method: as §1, §2, §3, §4, §5, §6, §7

A498 = details: Homo sapiens; A498, 10 μM; read-out: Growth percent
Method: as §1, §2, §3, §4, §5, §6, §7

UO-31 = details: Homo sapiens; UO-31, 10 μM; read-out: Growth percent
Method: as §1, §2, §3, §4, §5, §6, §7

COLO 205 = details: Homo sapiens; COLO 205, 10 μM; read-out: Growth percent
Method: as §1, §2, §3, §4, §5, §6, §7

NCI-H23 = details: Homo sapiens; NCI-H23, 10 μM; read-out: Growth percent
Method: as §1, §2, §3, §4, §5, §6, §7

NCI-H322M = details: Homo sapiens, read-out: Growth percent
Method: as §1, §2, §3, §4, §5, §6, §7

NCI-H460 = details: Homo sapiens; NCI-H460, 10 μM; read-out: Growth percent
Method: as §1, §2, §3, §4, §5, §6, §7

IGROV1 = details: Homo sapiens, IGROV-1; IGROV1, 10 μM; read-out: Growth percent
Method: as §1, §2, §3, §4, §5, §6, §7

SK-MEL-2 = details: Homo sapiens; SK-MEL-2, 10 μM; read-out: Growth percent
Method: as §1, §2, §3, §4, §5, §6, §7

HT29 = details: Homo sapiens, HT-29; HT29, 10 μM; read-out: Growth percent
Method: as §1, §2, §3, §4, §5, §6, §7

HS 578T = details: Homo sapiens, read-out: Growth percent
Method: as §1, §2, §3, §4, §5, §6, §7

HCC-2998 = details: Homo sapiens; HCC-2998, 10 μM; read-out: Growth percent
Method: as §1, §2, §3, §4, §5, §6, §7

UACC-257 = details: Homo sapiens; UACC-257, 10 μM; read-out: Growth percent
Method: as §1, §2, §3, §4, §5, §6, §7

MDA-MB-231/ATCC = details: Homo sapiens, read-out: Growth percent
Method: as §1, §2, §3, §4, §5, §6, §7

SK-MEL-28 = details: Homo sapiens; SK-MEL-28, 10 μM; read-out: Growth percent
Method: as §1, §2, §3, §4, §5, §6, §7

ACHN = details: Homo sapiens, read-out: Growth percent
Method: as §1, §2, §3, §4, §5, §6, §7

K-562 = details: Homo sapiens, K562; K-562, 10 μM; read-out: Growth percent
Method: as §1, §2, §3, §4, §5, §6, §7

Row | Compound | activity at 10 µM (SK-OV-3) | activity at 10 µM (SW-620) | activity at 10 µM (786-0) | activity at 10 µM (OVCAR-5) | activity at 10 µM (A498) | activity at 10 µM (UO-31) | activity at 10 µM (COLO 205) | activity at 10 µM (NCI-H23) | activity at 10 µM (NCI-H322M) | activity at 10 µM (NCI-H460) | activity at 10 µM (IGROV1) | activity at 10 µM (SK-MEL-2) | activity at 10 µM (HT29) | activity at 10 µM (HS 578T) | activity at 10 µM (HCC-2998) | activity at 10 µM (UACC-257) | activity at 10 µM (MDA-MB-231/ATCC) | activity at 10 µM (SK-MEL-28) | activity at 10 µM (ACHN) | activity at 10 µM (K-562)
1 | O=c1cc(-c2ccccc2)oc2cc(OCCCC[P+](C3CCCCC3)(C3CCCCC3)C3CCCCC3)cc(O)c12 [3e] | -82.4% | -76.4% | -80.1% | -60.5% | -87.6% | -92.5% | -70.2% | -88.5% | -85.2% | -66% | -59.4% | -91.9% | -84.9% | -62.1% | -84.7% | -92.2% | -81.6% | -41.4% | -72.5% | 3.17%
2 | COc1c(C)cc([P+](CCCCOc2cc(O)c3c(=O)cc(-c4ccccc4)oc3c2)(c2cc(C)c(OC)c(C)c2)c2cc(C)c(OC)c(C)c2)cc1C [3f] | -58.3% | -62.4% | -47% | -87.8% | -83.4% | -59.6% | -62.2% | -77.3% | -62.2% | -58.6% | -38% | -77.6% | -72.7% | -57.7% | -73.5% | -79.7% | -74.8% | -85.7% | -88.4% | 6.85%
3 | Cc1ccccc1[P+](CCCCOc1cc(O)c2c(=O)cc(-c3ccccc3)oc2c1)(c1ccccc1C)c1ccccc1C [3g] | -97.9% | -96.4% | -98.1% |  | -99.1% |  | -97% | -98.4% | -98.2% | -91.5% | -99.1% | -98.5% | -97.9% | -98.3% | -98.2% | -99.3% |  | -98.4% | -97% | -97.5%
4 | O=c1cc(-c2ccccc2)oc2cc(OCCCC[P+](c3ccccc3)(c3ccccc3)c3ccccn3)cc(O)c12 [3h] | -76.5% | -88.3% | -74.5% | -93.4% | -94% | -94% | -75.9% | -89.3% | -94.5% | -84.2% | -80.1% | -95.4% | -60.6% | -35.8% | -88.5% | -89.8% | -94.3% | -94.7% | -98% | -51.3%
